Results: patent US20240292843A1, “BIOFILM REMOVAL” (PARTNERS FOR ENDOSCOPY LIMITED, priority 2021, published 2024)

Tested on: biofilm containing Pseudomonas aeruginosa
Assay: Biofilm treatment of endoscope biopsy channel pieces, CFU by serial dilution and plate counting (FIG. 1)
Format: cell-based
Settings: mature biofilm on biopsy channel tubes; treatment applied for 5 minutes; 1.5 wt. % hydrogen peroxide or 1 mg/ml zeolite Y, aqueous; versus phosphate-buffer saline control; triplicate
Experimental: The biopsy channel of the endoscope harbors a biofilm containing Pseudomonas aeruginosa. As a first step, to form the sample biopsy tubes harboring the biofilm, the biopsy channel was first cut into small pieces, which are then submerged into Müller-Hilton broth. A single colony of Pseudomonas aeruginosa was added to the broth. At a second step, the pieces were kept in the broth at 37° C. for 24 hours to allow the bacteria to grow. Also in the second step, the tube pieces were then washed 5 times with a copious amount of water to remove dangling bacteria, and to leave only fixed biofilm remaining on the surface of the tubes. The second step is then repeated three times to provide a mature biofilm. To provide the data of FIG. 1, different treatment mixtures were applied for 5 minutes to the tubes with mature biofilm. The tubes with mature biofilm were prepared using the method above. After the treatment mixture is applied, the tubes are washed. The tubes are then placed in a centrifuge tube floating in an ultrasonic bath to release bacteria in the biofilm into solution. The number of colony forming units (CFU) is calculated via serial dilution and plate counting method. Each experiment is performed in triplicate.

OO [hydrogen peroxide]
number of colony forming units of the Pseudomonas aeruginosa bacteria: causes a reduction
